Results published in publication PMC13304593 (Pharmaceuticals, 2026).

Test: Pharmacokinetics of DTX in mice after oral administration
Format: in vivo, Kunming mice
Conditions: lung, oral 20 mg/kg DTX or equivalent
Experimental: Briefly, the samples were precipitated with three volumes of acetonitrile and analyzed using an LC-MS/MS system comprising a Waters ACQUITY ultra-high-performance liquid chromatography (UPLC) system (Waters Corporation, Milford, MA, USA) and an API 5500 mass spectrometer (AB Sciex LLC, Framingham, MA, USA) equipped with an electrospray ionization source. Separation was performed on an ACQUITY BEH C18 column (2.1 × 100 mm, 1.7 μm; Waters) using a gradient elution.
One hundred specific-pathogen-free (SPF) male Kunming mice (body weight: 22–24 g) were purchased from the Beijing Vital River Laboratory Animal Technology Co., Ltd. (Beijing, China). Mice were housed in an air-conditioned room maintained at 22–24 °C with a 12 h light/12 h dark cycle. Prior to the experiment, mice were fasted for 12 h with free access to water.
Mice were randomly divided by body weight into two main groups, each subdivided into 10 subgroups. […] At each time point post-administration (0.083, 0.25, 0.5, 1, 2, 3, 4, 6, 8, and 12 h), one subgroup of mice from each main group was anesthetized with Zoletil® 50. Systemic blood was collected and heparinized to prepare the plasma. Next, the animals were immediately euthanized by cervical dislocation under deep anesthesia prior to liver and lung excision. […]
Quantitative data are expressed as the mean ± SD.

t1/2: 2.6 h
Structure (SMILES): CC(=O)O[C@@]12CO[C@@H]1C[C@H](O)[C@@]1(C)C(=O)[C@H](O)C3=C(C)[C@@H](OC(=O)[C@H](O)[C@@H](NC(=O)OC(C)(C)C)c4ccccc4)C[C@@](O)([C@@H](OC(=O)c4ccccc4)[C@H]21)C3(C)C [DTX, docetaxel]
